Laboratory results: PubChem BioAssay (NCI)
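Method: 48-hour compound exposure of cells in 96-well plates, five concentrations, linear interpolation of endpoints. TGI: total growth inhibition.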

Assays:
Assay in all cases: growth of human tumour cells (NCI), 48 h
M14 melanoma = tested on: M14 melanoma
UACC-257 melanoma = tested on: UACC-257 melanoma
SNB-75 CNS = tested on: SNB-75 CNS
T-47D breast = tested on: T-47D breast
EKVX NSCLC = tested on: EKVX NSCLC
SK-MEL-5 melanoma = tested on: SK-MEL-5 melanoma
NCI-H226 lung = tested on: NCI-H226 lung
SK-MEL-28 melanoma = tested on: SK-MEL-28 melanoma
MDA-MB-435 = tested on: MDA-MB-435

Row | Structure (SMILES) | TGI (M14 melanoma) | TGI (UACC-257 melanoma) | TGI (SNB-75 CNS) | TGI (T-47D breast) | TGI (EKVX NSCLC) | TGI (SK-MEL-5 melanoma) | TGI (NCI-H226 lung) | TGI (SK-MEL-28 melanoma) | TGI (MDA-MB-435)
1 | CC1=NN(c2ccccc2Cl)C2(C1)SCC(=O)N2c1nc2ccccc2s1 (centres undefined) | > 100 µM | > 100 µM | > 100 µM | > 100 µM | > 100 µM | > 100 µM | > 100 µM | > 100 µM | > 100 µM
2 | CCOP(=O)(OCC)OC1CC(n2cnc3c(N(CC)CC)ncnc32)OC1CO[Si](C)(C)C(C)(C)C (centres undefined) | 33.1 µM | 32.4 µM | 23.3 µM | 27.8 µM | 20.5 µM | 31.4 µM | 39.3 µM | 36.3 µM | 31.7 µM
3 | O=C1C(c2c(O)n(-c3ccccc3)c3ccccc23)=Nc2ccccc21 | > 100 µM | > 100 µM | 40.4 µM | 71.9 µM | 83.2 µM | 69.8 µM | 70 µM | > 100 µM | > 100 µM
4 | Nc1nc(SCC(=O)c2ccccc2)nc2nc3c(c(-c4ccccc4)c12)CCCC3 | > 100 µM | > 100 µM | 78.6 µM | > 100 µM | > 100 µM | > 100 µM | 62.7 µM | 61.9 µM | > 100 µM
5 | CC(=O)Nc1ccccc1S(=O)(=O)c1c(-c2c(C)c(Cl)c(C)c(Cl)c2C)noc1C | > 100 µM | > 100 µM | 34.6 µM | > 100 µM | > 100 µM | > 100 µM | 78.8 µM | > 100 µM | > 100 µM
6 | Cc1oc2nc(N(C)C)n3c(C)nnc3c2c1C | > 100 µM | > 100 µM | > 100 µM | > 100 µM | > 100 µM | > 100 µM | > 100 µM | > 100 µM | > 100 µM
7 | CCCNc1c(Cl)cc(Cl)c2[nH]c3ccccc3c(=O)c12 | > 100 µM | > 100 µM | > 100 µM | > 100 µM | > 100 µM | > 100 µM | > 100 µM | > 100 µM | > 100 µM
8 | ClCc1nc2cc(Cl)ccc2o1 | 17.4 µM | 22.8 µM | 24.1 µM | 5.15 µM | 8.89 µM | 25.8 µM | 42.9 µM | 20.7 µM | 8.07 µM
9 | CC(C)Cn1cnnc1NS(=O)(=O)c1cc(C(=O)NN)c(Cl)cc1S | > 10 µM | > 10 µM | > 10 µM | > 10 µM | > 10 µM | > 10 µM | > 10 µM | > 10 µM | > 10 µM
10 | CC1(c2nc3ccccc3[nH]2)CCC(CO)C(C)(C)O1 (centres undefined) | > 100 µM | > 100 µM | > 100 µM | > 100 µM | > 100 µM | > 100 µM | > 100 µM | > 100 µM | > 100 µM
11 | CC(=O)N(CCc1ccccc1)C(C)(C#N)c1ccccc1 (centres undefined) | > 100 µM | > 100 µM | > 100 µM | > 100 µM | > 100 µM | > 100 µM | > 100 µM | > 100 µM | > 100 µM
